Article PMC10380188, “A Random Forest Model for Peptide Classification Based on Virtual Docking Data” (International Journal of Molecular Sciences, 2023)
No end group written: not given here.

These molecules were tested against T1, amyloid β-protein 42 (Aβ-42) (Homo sapiens, UniProt P05067) (assay: SPR affinity assay (Biacore X100), KD of peptides to Aβ-42). Conditions: Biacore X100, protein coupled to CM5 chip, HBS-EP buffer, six peptide concentrations, same value repeated on each docking-run line.
T1 construct: amyloid β-protein 42 (Aβ-42, n = 79)
Assay type: binding
Experimental: (§1) Equilibrium dissociation constants (KD) between all 194 (115 + 79) peptides and their receptor proteins were determined by SPR using the Biacore X100 instrument. Proteins were coupled to the CM5 chip by the EDC/NHS(1-Ethyl-3-(3′-dimethylaminopropyl) carbodiimide/n-Hydroxysuccinimide) method (GE HealthCare, Chicago, IL, USA), followed by running HBS-EP (HEPES Buffered Saline–EDTA–Surfactant P20) buffer (GE HealthCare, USA) that flowed through the entire pipeline. The peptide was diluted in six different concentrations with HBS-EP buffer and flowed into the machine from low to high, and its resonance signal change was detected separately. In each cycle, the peptide solution flowed through the chip at a constant flow rate of 30 μL/min for 120 s, and the peptide reacted fully with the protein, followed by HBS-EP buffer flowing through the chip at the same rate for 120 s, and the peptide was partially dissociated from the protein. Finally, the peptides bound to the proteins were completely eluted off with 0.25% SDS solution for the next cycle until all peptides were detected. The KD between each peptide and protein was calculated and analyzed using Biacore X100 Evaluation Software (Version 2.1) to determine its affinity.

T1 sequence (P05067 672-713 limits assumed): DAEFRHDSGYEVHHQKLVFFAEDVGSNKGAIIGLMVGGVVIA

YVRHGH [DPL_1069] gave a Kd of 37.1 µM.

The molecules below were run against porcine epidemic diarrhea virus spike (PEDV S) protein (Porcine epidemic diarrhea virus, UniProt Q91AV1) (assay: SPR affinity assay, KD of six-amino-acid peptides to PEDV S protein). Conditions: Receptor PEDV S; PEDV peptide dataset used for model performance validation; value repeated on each docking-pose line.
Assay type: binding
Experimental: as §1
Following the methods described above, a totally new dataset was constructed to further verify the performance of the constructed model. […] Meanwhile, the PEDV peptides were synthesized and tested by SPR successively, and the obtained KD values were further used to define the class of each peptide based on the criteria described above. Finally, the new 6-amino-acid peptide dataset for PEDV S combining all scores of the important features and class information was built to further test the predictive correctness of the RF model (Supplementary Table S2).

Chain of porcine epidemic diarrhea virus spike (PEDV S) protein (Q91AV1 26-1383): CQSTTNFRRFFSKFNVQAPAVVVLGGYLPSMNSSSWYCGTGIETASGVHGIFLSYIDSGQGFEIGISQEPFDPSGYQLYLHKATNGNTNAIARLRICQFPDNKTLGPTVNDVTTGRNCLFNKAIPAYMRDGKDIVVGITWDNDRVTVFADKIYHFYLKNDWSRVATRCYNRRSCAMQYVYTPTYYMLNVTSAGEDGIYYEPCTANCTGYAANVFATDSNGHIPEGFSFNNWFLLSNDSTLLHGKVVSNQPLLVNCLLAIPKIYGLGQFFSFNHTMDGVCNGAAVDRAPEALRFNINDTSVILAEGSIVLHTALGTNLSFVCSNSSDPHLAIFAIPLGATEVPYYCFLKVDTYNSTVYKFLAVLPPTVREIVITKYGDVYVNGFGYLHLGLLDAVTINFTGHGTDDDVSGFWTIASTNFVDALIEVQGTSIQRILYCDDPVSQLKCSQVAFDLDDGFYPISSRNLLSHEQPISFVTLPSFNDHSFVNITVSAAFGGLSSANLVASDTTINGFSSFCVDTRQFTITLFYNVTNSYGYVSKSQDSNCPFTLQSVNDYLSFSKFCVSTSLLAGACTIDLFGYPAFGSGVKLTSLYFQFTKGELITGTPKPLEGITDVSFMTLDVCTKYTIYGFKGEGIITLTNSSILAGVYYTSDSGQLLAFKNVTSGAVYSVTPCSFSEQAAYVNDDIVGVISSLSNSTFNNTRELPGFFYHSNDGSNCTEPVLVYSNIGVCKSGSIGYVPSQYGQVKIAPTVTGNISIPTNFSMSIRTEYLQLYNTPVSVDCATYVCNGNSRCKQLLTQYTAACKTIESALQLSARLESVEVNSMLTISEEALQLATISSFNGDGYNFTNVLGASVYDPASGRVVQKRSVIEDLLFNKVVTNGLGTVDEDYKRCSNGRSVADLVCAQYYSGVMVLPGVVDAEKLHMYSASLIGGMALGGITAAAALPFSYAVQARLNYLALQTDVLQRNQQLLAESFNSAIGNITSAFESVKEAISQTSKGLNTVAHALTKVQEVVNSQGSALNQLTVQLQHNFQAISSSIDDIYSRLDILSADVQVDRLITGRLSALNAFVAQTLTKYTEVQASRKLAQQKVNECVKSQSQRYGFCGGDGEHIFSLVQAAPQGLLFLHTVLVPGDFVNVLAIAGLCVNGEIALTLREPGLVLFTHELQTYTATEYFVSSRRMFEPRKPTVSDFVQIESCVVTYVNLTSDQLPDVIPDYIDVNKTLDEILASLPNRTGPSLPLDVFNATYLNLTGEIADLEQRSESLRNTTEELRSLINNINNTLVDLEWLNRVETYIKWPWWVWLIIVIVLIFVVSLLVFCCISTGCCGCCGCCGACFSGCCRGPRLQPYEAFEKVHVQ

Compared with FWKQNKCR [DPL_1034], WHFMIY [DPL_1040] is 7.4-fold higher in Kd: 24.2 µM for the first, 179 µM for the second.

Compared with WHFWWQ [DPL_1044], WHFEYF [DPL_1043] is 2-fold lower in Kd: 88.5 µM for the first, 43.7 µM for the second.

First: FWKQNKFL [DPL_1035]
Second: FWKAKQ [DPL_1033]
The Kd of the first is 3-fold lower: 15 µM for the first, 45.5 µM for the second.

Compared with WHFKYR [DPL_1041], WHFQNQ [DPL_1037] is 2200-fold higher in Kd: 0.0015 µM for the first, 3.23 µM for the second. The first binds more tightly here.

Compared with WHFWIV [DPL_1042], FWKEAK [DPL_1032] is 2-fold lower in Kd: 15.2 µM for the first, 7.72 µM for the second.

Going from WHFSKC [DPL_1036] to WHFNRP [DPL_1046], the Kd rises from 3.22 µM to 65.2 µM (20-fold).

FWKISH [DPL_1030] and WHFFKT [DPL_1039] are within 1.5-fold of each other in Kd: 28 µM for the first, 25.7 µM for the second.

Going from WHFHWP [DPL_1045] to N=C(N)NCCC[C@H](NC(=O)[C@H](CCCCN)NC(=O)[C@H](CO)NC(=O)[C@H](CCCCN)NC(=O)[C@H](Cc1c[nH]c2ccccc12)NC(=O)[C@@H](N)Cc1ccccc1)C(=O)O [DPL_1031], the Kd falls from 176 µM to 2.16 µM (81-fold).

WHFCQH [DPL_1038] was tested, and the Kd was 0.16 µM.

Same assay, conditions: Receptor PEDV S; SPR; value repeated on each docking-pose line of the peptide

First: RKQYWQ [DPL_1058]
Second: RKQHLL [DPL_1055]
The Kd of the first is 730-fold higher: 728 µM for the first, 1 µM for the second. The second binds more tightly here.

Going from RKQHCK [DPL_1057] to KHQAHH [DPL_1060], the Kd falls from 1.53 µM to 0.0431 µM (35-fold). The second binds more tightly here.

KHQWKY [DPL_1062] and RKQHIS [DPL_1056] are within 1.5-fold of each other in Kd: 326 µM for the first, 384 µM for the second.

Same assay, conditions: SPR, peptide to PEDV S protein; value repeated on each docking-pose line of the peptide

Compared with FWKYAW [DPL_1028], FWKCDV [DPL_1022] is 2-fold higher in Kd: 56.8 µM for the first, 116 µM for the second. The first binds more tightly here.

Compared with FWKHEK [DPL_1025], FWKHRI [DPL_1029] is 3.7-fold lower in Kd: 132 µM for the first, 36 µM for the second.

Going from FWKWWW [DPL_1026] to FWKFNE [DPL_1027], the Kd rises from 17.7 µM to 56.6 µM (3.2-fold).

Going from FWKLWS [DPL_1024] to FWKYNT [DPL_1023], the Kd rises from 0.987 µM to 32.5 µM (33-fold). The first binds more tightly here.

Same assay, conditions: SPR, receptor PEDV S; value repeated on each of the 20 docking-pose lines per peptide

FWKSWH [DPL_1016] and FWKYHE [DPL_1015] are within 1.5-fold of each other in Kd: 34.9 µM for the first, 43.4 µM for the second.

Compared with FWKQNK [DPL_1013], FWKPDQ [DPL_1019] is 71-fold lower in Kd: 1190 µM for the first, 16.7 µM for the second.

Compared with FWKWHW [DPL_1014], FWKFWK [DPL_1018] is 190-fold higher in Kd: 0.136 µM for the first, 25.4 µM for the second. The first binds more tightly here.

Going from FWKKED [DPL_1020] to FWKPKR [DPL_1021], the Kd rises from 7.04 µM to 39.5 µM (5.6-fold). The first binds more tightly here.

For FWKHDI [DPL_1017], the Kd was 56.2 µM.

Same assay, conditions: receptor PEDV S; PEDV peptide dataset for model performance validation; value repeated on each of the peptide's 20 lines

First: KHQKRC [DPL_1067]
Second: KHQHFG [DPL_1063]
The Kd of the first is 72-fold lower: 0.139 µM for the first, 9.99 µM for the second. The first binds more tightly here.

With KHQVHR [DPL_1064] the Kd was 9.82 µM.

Same assay, conditions: receptor PEDV S; PEDV peptide dataset used for model performance validation; same value repeated on each line of a peptide

Compared with RKQGVK [DPL_1054], RKQKDW [DPL_1049] is 550-fold lower in Kd: 192 µM for the first, 0.35 µM for the second. The second binds more tightly here.

First: WHFMIK [DPL_1048]
Second: WHFGSK [DPL_1047]
The Kd of the first is 540-fold lower: 0.13 µM for the first, 69.8 µM for the second. The first binds more tightly here.

Going from RKQICW [DPL_1053] to RKQWPQ [DPL_1050], the Kd falls from 21.8 µM to 0.556 µM (39-fold). The second binds more tightly here.

Compared with RKQFDK [DPL_1051], RKQSHK [DPL_1052] is 6000-fold higher in Kd: 0.00736 µM for the first, 44.5 µM for the second.
